Measured values taken from patent publication US8883748B2, “Formulation for treating fungal infection” (Lifecare Innovations Pvt. Ltd., priority 2009, dated 2014).
Converted amounts (≈) assume the structure as drawn.

How the values were obtained:
Assay in all cases: In-vitro antifungal spectrum and MIC, clinical isolates
Assay type in all cases: cell-based
Absidia corymbifera = conditions: for MIC: in µg/mL (unit assumed)
Procedure: (§1) The experiments were carried out to determine antifungal spectrum and MIC of Nanosomal Amphotericin B vis-à-vis commonly used antifungals viz.
(§2) Amphotericin B, Voriconazole, Itraconazole and Fluconazole to ascertain efficacy against pathogenic yeasts and moulds including dermatophytes.

Candida albicans = conditions: for MIC: in µg/mL (unit assumed)
Procedure: as §1, §2

Fusarium spp. = conditions: for MIC: in µg/mL (unit assumed)
Procedure: as §1, §2

Aspergillus oryzae = conditions: for MIC: in µg/mL (unit assumed)
Procedure: as §1, §2

Penicillium marneffei = conditions: for MIC: in µg/mL (unit assumed)
Procedure: as §1, §2

Alternaria spp. = conditions: for MIC: in µg/mL (unit assumed)
Procedure: as §1, §2

[1] = system: Rhizopus arrhizus, R. pusilus; conditions: for MIC: in µg/mL (unit assumed)
Procedure: as §1, §2

Cryptococcus neoformans = conditions: for MIC: in µg/mL (unit assumed)
Procedure: as §1, §2

Curvularia spp. = conditions: for MIC: in µg/mL (unit assumed)
Procedure: as §1, §2

[2] = system: Aspergillus flavus, A. fumigatus; conditions: for MIC: in µg/mL (unit assumed)
Procedure: as §1, §2

[3] = system: Cladophialophora bantiana; conditions: for MIC: in µg/mL (unit assumed)
Procedure: as §1, §2

Trichophyton rubrum = conditions: for MIC: in µg/mL (unit assumed)
Procedure: as §1, §2

[4] = system: Trichophyton mentagrophytes; conditions: for MIC: in µg/mL (unit assumed)
Procedure: as §1, §2

Apophysomyces elegans = conditions: for MIC: unit assumed
Procedure: as §1, §2

Paeciliomyces spp. = conditions: for MIC: in µg/mL (unit assumed)
Procedure: as §1, §2

Mucor spp. = conditions: for MIC: in µg/mL (unit assumed)
Procedure: as §1, §2

Scytalidum dimidatum = conditions: for MIC: unit assumed
Procedure: as §1, §2

Phialophora verrucosa = conditions: for MIC: unit assumed
Procedure: as §1, §2

Sporothrix schenckii = conditions: for MIC: in µg/mL (unit assumed)
Procedure: as §1, §2

Pseudallescheria boydii = conditions: for MIC: in µg/mL (unit assumed)
Procedure: as §1, §2

Microsporum gypseum = conditions: for MIC: in µg/mL (unit assumed)
Procedure: as §1, §2

`C[C@@H]1[C@H](O)[C@@H](C)/C=C/C=C/C=C/C=C/C=C/C=C/C=C/[C@H](O[C@@H]2O[C@H](C)[C@@H](O)[C@H](N)[C@@H]2O)C[C@@H]2O[C@](O)(C[C@@H](O)C[C@@H](O)[C@H](O)CC[C@@H](O)C[C@@H](O)CC(=O)O[C@H]1C)C[C@H](O)[C@H]2C(=O)O` [Amphotericin B] was tested, and the Susceptibility category (Absidia corymbifera) was “Active”, the MIC (Absidia corymbifera) was 0.5 and the Susceptibility category (Candida albicans) was “Active”. The MIC (Candida albicans) was 0.125-1, the Susceptibility category (Fusarium spp.) was “Active” and the MIC (Fusarium spp.) was 0.5-1. For the same compound, the Susceptibility category (Aspergillus oryzae) was “Intermediate”, the MIC (Aspergillus oryzae) was 2-4 and the Susceptibility category (Penicillium marneffei) was “Active”. For the same compound, the MIC (Penicillium marneffei) was 0.25-1, the Susceptibility category (Alternaria spp.) was “Active” and the MIC (Alternaria spp.) was 1-2. For the same compound, the Susceptibility category [1] was “Active”, the MIC [1] was 0.5-2 and the Susceptibility category (Cryptococcus neoformans) was “Active”. The MIC (Cryptococcus neoformans) was 0.25-1, the Susceptibility category (Curvularia spp.) was “Active” and the MIC (Curvularia spp.) was 0.125-1. For the same compound, the Susceptibility category [2] was “Active”, the MIC [2] was 0.5-2 and the Susceptibility category [3] was “Active”. The MIC [3] was 0.5-1, the Susceptibility category (Trichophyton rubrum) was “Active” and the MIC (Trichophyton rubrum) was 0.25-1. The Susceptibility category [4] was “Active”, the MIC [4] was 0.5-2 and the Susceptibility category (Apophysomyces elegans) was “Active”. For the same compound, the MIC (Apophysomyces elegans) was 2 µg/mL (≈ 2.16 µM), the Susceptibility category (Paeciliomyces spp.) was “Intermediate” and the MIC (Paeciliomyces spp.) was 1-4. The Susceptibility category (Mucor spp.) was “Active”, the MIC (Mucor spp.) was 1-2 and the Susceptibility category (Scytalidum dimidatum) was “Active”. For the same compound, the MIC (Scytalidum dimidatum) was 0.5 µg/mL (≈ 0.541 µM), the Susceptibility category (Phialophora verrucosa) was “Intermediate” and the MIC (Phialophora verrucosa) was 4 µg/mL (≈ 4.33 µM). The Susceptibility category (Sporothrix schenckii) was “Active”, the MIC (Sporothrix schenckii) was 0.5-1 and the Susceptibility category (Pseudallescheria boydii) was “Active”. The MIC (Pseudallescheria boydii) was 0.5-1, the Susceptibility category (Microsporum gypseum) was “Active” and the MIC (Microsporum gypseum) was 0.5.

In the case of `C[C@@H](c1ncncc1F)[C@](O)(Cn1cncn1)c1ccc(F)cc1F` [Voriconazole], the Susceptibility category (Absidia corymbifera) is reported as “Variable”, the MIC (Absidia corymbifera) is reported as 2-16 and the Susceptibility category (Candida albicans) is reported as “Variable”. The MIC (Candida albicans) was 0.03-8, the Susceptibility category (Fusarium spp.) was “Intermediate” and the MIC (Fusarium spp.) was 0.5-4. For the same compound, the Susceptibility category (Aspergillus oryzae) was “Intermediate”, the MIC (Aspergillus oryzae) was 0.5-4 and the Susceptibility category (Penicillium marneffei) was “Active”. The MIC (Penicillium marneffei) was 0.25-1, the Susceptibility category (Alternaria spp.) was “Active” and the MIC (Alternaria spp.) was 0.5-1. For the same compound, the Susceptibility category [1] was “Variable”, the MIC [1] was 1-8 and the Susceptibility category (Cryptococcus neoformans) was “Variable”. For the same compound, the MIC (Cryptococcus neoformans) was 0.03-16, the Susceptibility category (Curvularia spp.) was “Active” and the MIC (Curvularia spp.) was 1-2. For the same compound, the Susceptibility category [2] was “Active”, the MIC [2] was 0.125-1 and the Susceptibility category [3] was “Active”. The MIC [3] was 0.25-2, the Susceptibility category (Trichophyton rubrum) was “Active” and the MIC (Trichophyton rubrum) was 0.25-0.5. The Susceptibility category [4] was “Active”, the MIC [4] was 0.5-1 and the Susceptibility category (Apophysomyces elegans) was “Intermediate”. The MIC (Apophysomyces elegans) was 8 µg/mL (≈ 22.9 µM), the Susceptibility category (Paeciliomyces spp.) was “Variable” and the MIC (Paeciliomyces spp.) was 0.125-8. The Susceptibility category (Mucor spp.) was “Resistant”, the MIC (Mucor spp.) was 8-16 and the Susceptibility category (Scytalidum dimidatum) was “Active”. The MIC (Scytalidum dimidatum) was 0.5 µg/mL (≈ 1.43 µM), the Susceptibility category (Phialophora verrucosa) was “Active” and the MIC (Phialophora verrucosa) was 1 µg/mL (≈ 2.86 µM). For the same compound, the Susceptibility category (Sporothrix schenckii) was “Variable”, the MIC (Sporothrix schenckii) was 0.03-16 and the Susceptibility category (Pseudallescheria boydii) was “Active”. For the same compound, the Susceptibility category (Microsporum gypseum) was “Active” and the MIC (Microsporum gypseum) was 0.125-0.5.

In the case of `OC(Cn1cncn1)(Cn1cncn1)c1ccc(F)cc1F` [Fluconazole], the Susceptibility category (Absidia corymbifera) is reported as “Resistant”, the MIC (Absidia corymbifera) is reported as 64 and the Susceptibility category (Candida albicans) is reported as “Variable”. For the same compound, the MIC (Candida albicans) was 0.125-64, the Susceptibility category (Fusarium spp.) was “Resistant” and the MIC (Fusarium spp.) was 16-64. For the same compound, the Susceptibility category (Aspergillus oryzae) was “Resistant”, the MIC (Aspergillus oryzae) was 64 and the Susceptibility category (Penicillium marneffei) was “Resistant”. The MIC (Penicillium marneffei) was 32-64, the Susceptibility category (Alternaria spp.) was “Resistant” and the MIC (Alternaria spp.) was 32-64. For the same compound, the Susceptibility category [1] was “Resistant”, the MIC [1] was 8-64 and the Susceptibility category (Cryptococcus neoformans) was “Variable”. For the same compound, the MIC (Cryptococcus neoformans) was 0.125-16, the Susceptibility category (Curvularia spp.) was “Resistant” and the MIC (Curvularia spp.) was 8-64. The Susceptibility category [2] was “Resistant”, the MIC [2] was 32-64 and the Susceptibility category [3] was “Resistant”. The MIC [3] was 32-64, the Susceptibility category (Trichophyton rubrum) was “Variable/Resistant” and the MIC (Trichophyton rubrum) was 4-32. For the same compound, the Susceptibility category [4] was “Resistant”, the MIC [4] was 32-64 and the Susceptibility category (Apophysomyces elegans) was “Resistant”. The MIC (Apophysomyces elegans) was 64 µg/mL (≈ 209 µM), the Susceptibility category (Paeciliomyces spp.) was “Resistant” and the MIC (Paeciliomyces spp.) was 64. For the same compound, the Susceptibility category (Mucor spp.) was “Resistant”, the MIC (Mucor spp.) was 64 and the Susceptibility category (Scytalidum dimidatum) was “Resistant”. The MIC (Scytalidum dimidatum) was 32 µg/mL (≈ 104 µM), the Susceptibility category (Phialophora verrucosa) was “Resistant” and the MIC (Phialophora verrucosa) was 16 µg/mL (≈ 52.2 µM). The Susceptibility category (Sporothrix schenckii) was “Resistant”, the MIC (Sporothrix schenckii) was 8-64 and the Susceptibility category (Pseudallescheria boydii) was “Resistant”. The MIC (Pseudallescheria boydii) was 8-32, the Susceptibility category (Microsporum gypseum) was “Resistant” and the MIC (Microsporum gypseum) was 64.

In the case of `CCC(C)n1ncn(-c2ccc(N3CCN(c4ccc(OCC5COC(Cn6cncn6)(c6ccc(Cl)cc6Cl)O5)cc4)CC3)cc2)c1=O` (centres unmarked) [Itraconazole], the MIC (Absidia corymbifera) is reported as 16, the MIC (Candida albicans) is reported as 0.03-8 and the MIC (Fusarium spp.) is reported as 8-32. The Susceptibility category (Aspergillus oryzae) was “Active”, the MIC (Aspergillus oryzae) was 0.125-0.5 and the Susceptibility category (Penicillium marneffei) was “Active”. The MIC (Penicillium marneffei) was 1-2, the Susceptibility category (Alternaria spp.) was “Active” and the MIC (Alternaria spp.) was 1-2. For the same compound, the MIC [1] was 8-16, the MIC (Cryptococcus neoformans) was 0.03-4 and the MIC (Curvularia spp.) was 8-16. The MIC [2] was 0.03-16, the Susceptibility category [3] was “Active” and the MIC [3] was 0.5-2. The MIC (Trichophyton rubrum) was 8-16, the Susceptibility category [4] was “Active” and the MIC [4] was 1-2. The MIC (Apophysomyces elegans) was 16 µg/mL (≈ 22.7 µM), the MIC (Paeciliomyces spp.) was 0.06-16 and the MIC (Mucor spp.) was 0.03-8. For the same compound, the MIC (Scytalidum dimidatum) was 16 µg/mL (≈ 22.7 µM), the MIC (Phialophora verrucosa) was 16 µg/mL (≈ 22.7 µM) and the MIC (Sporothrix schenckii) was 0.03-16. For the same compound, the Susceptibility category (Pseudallescheria boydii) was “Active”, the Susceptibility category (Microsporum gypseum) was “Active” and the MIC (Microsporum gypseum) was 0.25-0.5.
